In ChEMBL document CHEMBL1201862, “PubChem BioAssay data set” (2004):
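Grown in 96-well plates, cells were treated for 48 hours with each compound at five concentrations. Insufficient inhibition: endpoint recorded as highest concentration tested. GI50 = concentration required for 50% inhibition of growth.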 The source made the active and inactive calls. Cut-off read from the data, not from the text of the source: active = GI50 up to about 1.1 µM and inactive = higher.

Columns and labels:
Assay in all cases: NCI-60 cell line screen, 48 h
M14 = test system: M14
PC-3 = test system: PC-3
IGROV-1 = test system: IGROV-1
SF-268 = test system: SF-268
MCF7 = test system: MCF7
COLO 205 = test system: COLO 205
MDA-MB-231 = test system: MDA-MB-231
UACC-62 = test system: UACC-62
HCT-15 = test system: HCT-15
SNB-19 = test system: SNB-19
EKVX = test system: EKVX
SN12C = test system: SN12C
SNB-75 = test system: SNB-75
SK-MEL-2 = test system: SK-MEL-2
HCC 2998 = test system: HCC 2998
T47D = test system: T47D
NCI-H23 = test system: NCI-H23
UACC-257 = test system: UACC-257
HCT-116 = test system: HCT-116
A498 = test system: A498

O=C1NCCCc2nonc21
GI50 (M14): > 100 µM (inactive) | GI50 (PC-3): > 100 µM (inactive) | GI50 (IGROV-1): > 100 µM (inactive) | GI50 (SF-268): > 100 µM (inactive) | GI50 (MCF7): > 100 µM (inactive) | GI50 (COLO 205): > 100 µM (inactive) | GI50 (MDA-MB-231): > 100 µM (inactive) | GI50 (UACC-62): > 100 µM (inactive) | GI50 (HCT-15): > 100 µM | GI50 (SNB-19): > 100 µM (inactive) | GI50 (EKVX): > 100 µM (inactive) | GI50 (SN12C): > 100 µM (inactive) | GI50 (SNB-75): > 100 µM (inactive) | GI50 (SK-MEL-2): > 100 µM (inactive) | GI50 (HCC 2998): > 100 µM (inactive) | GI50 (T47D): > 100 µM (inactive) | GI50 (NCI-H23): > 100 µM (inactive) | GI50 (UACC-257): > 100 µM (inactive) | GI50 (HCT-116): > 100 µM (inactive)

COc1ccc(/C=C2\CCC(C)c3c2nc(N)c(C#N)c3-c2ccc(OC)c(OC)c2)cc1OC (stereo not drawn)
GI50 (M14): 32.3 µM (inactive) | GI50 (PC-3): 2.92 µM (inactive) | GI50 (IGROV-1): 15.1 µM (inactive) | GI50 (SF-268): 52.7 µM (inactive) | GI50 (MCF7): 5.65 µM (inactive) | GI50 (COLO 205): 6.56 µM (inactive) | GI50 (MDA-MB-231): 9.89 µM (inactive) | GI50 (UACC-62): 88.1 µM (inactive) | GI50 (HCT-15): 5.71 µM | GI50 (SNB-19): 72.4 µM (inactive) | GI50 (EKVX): 1.36 µM (inactive) | GI50 (SN12C): > 100 µM (inactive) | GI50 (SK-MEL-2): 2.42 µM (inactive) | GI50 (T47D): 1.13 µM (inactive) | GI50 (NCI-H23): 5.6 µM (inactive) | GI50 (UACC-257): 1.96 µM (inactive) | GI50 (HCT-116): 8.81 µM (inactive)

COc1ccc(/N=N/C(=O)NC(CC(C)C)C(=O)NC(CC(C)C)C(=O)O)cc1 (stereo not drawn)
GI50 (M14): 29.9 µM (inactive) | GI50 (PC-3): 18.7 µM (inactive) | GI50 (IGROV-1): > 100 µM (inactive) | GI50 (SF-268): 16.9 µM (inactive) | GI50 (MCF7): > 100 µM (inactive) | GI50 (COLO 205): 21.5 µM (inactive) | GI50 (A498): > 100 µM (inactive) | GI50 (UACC-62): 16.6 µM (inactive) | GI50 (HCT-15): 19.5 µM | GI50 (SNB-19): > 100 µM (inactive) | GI50 (EKVX): > 100 µM (inactive) | GI50 (SN12C): > 100 µM (inactive) | GI50 (SNB-75): > 100 µM (inactive) | GI50 (HCC 2998): 30.9 µM (inactive) | GI50 (T47D): 26.9 µM (inactive) | GI50 (NCI-H23): > 100 µM (inactive) | GI50 (UACC-257): 7.98 µM (inactive) | GI50 (HCT-116): 86.5 µM (inactive)

O=C1CCCCC1=C(I)I
GI50 (M14): 18 µM (inactive) | GI50 (PC-3): 16.5 µM (inactive) | GI50 (IGROV-1): 15.5 µM (inactive) | GI50 (SF-268): 19.4 µM (inactive) | GI50 (COLO 205): 15.3 µM (inactive) | GI50 (A498): 20.5 µM (inactive) | GI50 (UACC-62): 17.1 µM (inactive) | GI50 (SNB-19): 12.1 µM (inactive) | GI50 (EKVX): 1.88 µM (inactive) | GI50 (SN12C): 23.7 µM (inactive) | GI50 (SNB-75): 18.5 µM (inactive) | GI50 (SK-MEL-2): 16.7 µM (inactive) | GI50 (HCC 2998): 15.8 µM (inactive) | GI50 (T47D): 15 µM (inactive) | GI50 (HCT-116): 16.6 µM (inactive)

O=c1/c(=C/c2c(O)ccc3ccccc23)sc2nc3ccccc3n12
GI50 (M14): > 100 µM (inactive) | GI50 (IGROV-1): > 100 µM (inactive) | GI50 (SF-268): > 100 µM (inactive) | GI50 (COLO 205): > 100 µM (inactive) | GI50 (A498): > 100 µM (inactive) | GI50 (UACC-62): > 100 µM (inactive) | GI50 (HCT-15): > 100 µM | GI50 (SNB-19): > 100 µM (inactive) | GI50 (EKVX): > 100 µM (inactive) | GI50 (SN12C): > 100 µM (inactive) | GI50 (SNB-75): > 100 µM (inactive) | GI50 (SK-MEL-2): > 100 µM (inactive) | GI50 (HCC 2998): > 100 µM (inactive) | GI50 (NCI-H23): > 100 µM (inactive) | GI50 (UACC-257): > 100 µM (inactive) | GI50 (HCT-116): > 100 µM (inactive)

O=C(CC(=O)N1N=C(N2c3ccccc3Sc3ccccc32)CC1c1ccccc1)Nc1ccccc1Cl (stereo not drawn)
GI50 (M14): > 100 µM (inactive) | GI50 (PC-3): > 100 µM (inactive) | GI50 (IGROV-1): > 100 µM (inactive) | GI50 (SF-268): > 100 µM (inactive) | GI50 (COLO 205): > 100 µM (inactive) | GI50 (MDA-MB-231): > 100 µM (inactive) | GI50 (A498): > 100 µM (inactive) | GI50 (UACC-62): > 100 µM (inactive) | GI50 (HCT-15): > 100 µM | GI50 (SNB-19): > 100 µM (inactive) | GI50 (EKVX): > 100 µM (inactive) | GI50 (SN12C): > 100 µM (inactive) | GI50 (SNB-75): > 100 µM (inactive) | GI50 (SK-MEL-2): > 100 µM (inactive) | GI50 (HCC 2998): > 100 µM (inactive) | GI50 (T47D): > 100 µM (inactive) | GI50 (NCI-H23): > 100 µM (inactive) | GI50 (UACC-257): > 100 µM (inactive) | GI50 (HCT-116): > 100 µM (inactive)

COc1nc2c(c(=O)n1C)N=C(c1ccc(Cl)cc1)CC(c1ccccc1)N2 (stereo not drawn)
GI50 (M14): 32.9 µM (inactive) | GI50 (PC-3): 37.7 µM (inactive) | GI50 (IGROV-1): 17.2 µM (inactive) | GI50 (MCF7): 14.8 µM (inactive) | GI50 (COLO 205): 36 µM (inactive) | GI50 (MDA-MB-231): 23.3 µM (inactive) | GI50 (A498): 41.6 µM (inactive) | GI50 (UACC-62): 17.6 µM (inactive) | GI50 (HCT-15): 15 µM | GI50 (SNB-19): 38.8 µM (inactive) | GI50 (EKVX): 21.5 µM (inactive) | GI50 (SN12C): 21.7 µM (inactive) | GI50 (SNB-75): 14.3 µM (inactive) | GI50 (SK-MEL-2): 18.7 µM (inactive) | GI50 (HCC 2998): 17.7 µM (inactive) | GI50 (NCI-H23): 25.2 µM (inactive) | GI50 (UACC-257): 26.5 µM (inactive) | GI50 (HCT-116): 22.7 µM (inactive)

CC12CCC(=O)N1c1cncnc1N2 (stereo not drawn)
GI50 (M14): > 10 µM (inactive) | GI50 (PC-3): > 10 µM (inactive) | GI50 (IGROV-1): > 10 µM (inactive) | GI50 (SF-268): > 10 µM (inactive) | GI50 (MCF7): > 10 µM (inactive) | GI50 (UACC-62): > 10 µM (inactive) | GI50 (HCT-15): > 10 µM | GI50 (SNB-19): > 10 µM (inactive) | GI50 (EKVX): > 10 µM (inactive) | GI50 (SN12C): > 10 µM (inactive) | GI50 (SNB-75): > 10 µM (inactive) | GI50 (SK-MEL-2): > 10 µM (inactive) | GI50 (HCC 2998): > 10 µM (inactive) | GI50 (NCI-H23): > 10 µM (inactive) | GI50 (UACC-257): > 10 µM (inactive) | GI50 (HCT-116): > 10 µM (inactive)
